± gives the expanded uncertainty stated by the source.
What was measured:
[1] = Liquid, Closed cell (Static) method
[2] = excess molar enthalpy (molar enthalpy of mixing); xn = mol fraction of the nth substance listed; conditions: 298.15 K, 101 kPa, Liquid, Flow calorimetry

| Structure (SMILES) | vapor or sublimation pressure ([1]; 263.15 K) [kPa] | vapor or sublimation pressure ([1]; 273.15 K) [kPa] | vapor or sublimation pressure ([1]; 283.15 K) [kPa] | vapor or sublimation pressure ([1]; 293.15 K) [kPa] | vapor or sublimation pressure ([1]; 298.15 K) [kPa] | vapor or sublimation pressure ([1]; 303.15 K) [kPa] | vapor or sublimation pressure ([1]; 313.15 K) [kPa] | vapor or sublimation pressure ([1]; 323.15 K) [kPa] | vapor or sublimation pressure ([1]; 333.15 K) [kPa] | vapor or sublimation pressure ([1]; 343.15 K) [kPa] | other results |
| --- | --- | --- | --- | --- | --- | --- | --- | --- | --- | --- | --- |
| CC#CCCC [2-hexyne] | 1.393 ± 0.01 | 2.608 ± 0.013 | 4.631 ± 0.016 | 7.845 ± 0.023 | 10.05 ± 0.027 | 12.75 ± 0.033 | 19.99 ± 0.047 | 30.32 ± 0.067 | 44.66 ± 0.095 | 64.09 ± 0.13 |  |
| C#CCCCC [1-hexyne] | 2.721 ± 0.013 | 4.893 ± 0.017 | 8.363 ± 0.023 | 13.67 ± 0.032 | 17.22 ± 0.039 | 21.5 ± 0.047 | 32.65 ± 0.066 | 48.09 ± 0.093 | 68.9 ± 0.13 | 96.32 ± 0.17 |  |
| CC#CCCC [2-hexyne] + COC(C)(C)C |  |  |  |  |  |  |  |  |  |  | excess molar enthalpy ([2]; x1 = 0.1527): -0.0143 ± 0.00239 kcal/mol; excess molar enthalpy ([2]; x1 = 0.2965): -0.0263 ± 0.00239 kcal/mol; excess molar enthalpy ([2]; x1 = 0.4852): -0.0359 ± 0.00239 kcal/mol; excess molar enthalpy ([2]; x1 = 0.6624): -0.0351 ± 0.00239 kcal/mol; excess molar enthalpy ([2]; x1 = 0.7708): -0.0287 ± 0.00239 kcal/mol; excess molar enthalpy ([2]; x1 = 0.8513): -0.0203 ± 0.00239 kcal/mol |
| C#CCCCC [1-hexyne] + COC(C)(C)C |  |  |  |  |  |  |  |  |  |  | excess molar enthalpy ([2]; x1 = 0.1111): -0.0332 ± 0.00239 kcal/mol; excess molar enthalpy ([2]; x1 = 0.2113): -0.0641 ± 0.00239 kcal/mol; excess molar enthalpy ([2]; x1 = 0.3134): -0.0884 ± 0.00263 kcal/mol; excess molar enthalpy ([2]; x1 = 0.389): -0.1 ± 0.00263 kcal/mol; excess molar enthalpy ([2]; x1 = 0.4482): -0.104 ± 0.00263 kcal/mol; excess molar enthalpy ([2]; x1 = 0.5204): -0.102 ± 0.00263 kcal/mol; excess molar enthalpy ([2]; x1 = 0.6206): -0.0901 ± 0.00263 kcal/mol; excess molar enthalpy ([2]; x1 = 0.7263): -0.0712 ± 0.00239 kcal/mol; excess molar enthalpy ([2]; x1 = 0.8179): -0.0526 ± 0.00239 kcal/mol; excess molar enthalpy ([2]; x1 = 0.9011): -0.0339 ± 0.00239 kcal/mol |
| COC(C)(C)C [2-methoxy-2-methylpropane] | 6.252 ± 0.02 | 10.64 ± 0.027 | 17.31 ± 0.039 | 27.06 ± 0.056 | 33.39 ± 0.068 | 40.86 ± 0.082 | 59.81 ± 0.11 | 85.15 ± 0.16 | 118.27 ± 0.21 | 160.66 ± 0.28 |  |

Reference: the NIST ThermoML archive (doi:10.1016/j.fluid.2006.08.007)
